For this assay, the system named is HCV RNA replication. As to the kind of experiment: RNA replication inhibition assay (luciferase reporter-linked HCV genome). The settings on record: Hepatitis C virus, percentage of untreated control population; for activity at 5 µM: read-out: Residual Luciferase activity, 5 micromolar; for activity at 10 µM: read-out: Residual Luciferase activity, 10 micromolar. (In general: A reporter such as luciferase makes a cellular process visible.)

Where only a bound is given, the exact number is not on record here.

For the compound `Cc1cc2nc(/C=C/c3ccccc3)n(Cc3ccc(Cl)cc3)c2cc1C` [Compound 145], the activity at 5 µM was less than 80% and the activity at 10 µM was less than 20%.
As for `CCCCc1nc2ccccc2n1Cc1ccc(Cl)cc1` [Compound 117], the activity at 5 µM is less than 20% and the activity at 10 µM is less than 20%.
In the case of `Oc1ccc2ncn(Cc3ccc(Cl)cc3)c2c1` [Compound 61], the activity at 5 µM is more than 80% and the activity at 10 µM was less than 80%.
As to `CC(=O)Nc1c(C)c(C)cc2c1ncn2Cc1ccc(Cl)cc1` [Compound 68], the activity at 5 µM was more than 80% and the activity at 10 µM is more than 80%.
Take `CCc1nc2ccccc2n1Cc1ccc(Cl)cc1` [Compound 112]: the activity at 5 µM was more than 80% and the activity at 10 µM is less than 80%.
`COC(=O)C1CCN(Cc2nc3ccccc3n2Cc2ccc(Cl)cc2)C1` (centres unmarked) [Compound 7]: the activity at 5 µM is more than 80% and the activity at 10 µM was more than 80%.
Turning to `Clc1ccc(Cn2c(-c3cncs3)nc3ccccc32)cc1` [Compound 43], the activity at 5 µM was less than 80% and the activity at 10 µM is less than 55%.
Taken in the same sequence, the figures for `COC(=O)C1CCCN1Cc1nc2ccccc2n1Cc1ccc(Cl)cc1` (centres unmarked) [Compound 8] were less than 55% and less than 55%.
In the case of `CS(=O)(=O)N1CCC(Cn2c(CN3CCCC3)nc3ccccc32)CC1` [Compound 38], the activity at 5 µM is less than 80% and the activity at 10 µM is more than 80%.
As for `c1ccc2c(c1)nc(CN1CCCC1)n2Cc1ccncc1` [Compound 20], the activity at 5 µM is more than 80% and the activity at 10 µM was more than 80%.
On to `CC(C)Cc1nc2ccccc2n1Cc1ccc(Cl)cc1` [Compound 118], for which the activity at 5 µM is less than 55% and the activity at 10 µM was less than 55%.
In the case of `COc1c(Cl)cnc2c1ccn2Cc1ccc(Cl)cc1` [Compound 101], the activity at 5 µM is more than 80% and the activity at 10 µM is less than 80%.
On to `Cc1cc2nc(CN3CCC[C@H]3C)n(Cc3ccc(Cl)cc3)c2cc1C` [Compound 98], for which the activity at 5 µM is less than 55% and the activity at 10 µM was less than 20%.
Turning to `CC1CCC(C)N1Cc1nc2ccccc2n1Cc1ccc(Cl)cc1` (centres unmarked) [Compound 26], the activity at 5 µM was more than 80% and the activity at 10 µM was more than 80%.
As for `Clc1ccc(Cn2cnc3cc(Cl)ccc32)cc1` [Compound 58], the activity at 5 µM is less than 80%.
`CC(=O)N(C)Cc1nc2ccccc2n1Cc1ccc(Cl)cc1Cl` [Compound 126]: the activity at 5 µM was less than 80% and the activity at 10 µM was less than 55%.
The like results for `CCn1c(CNC=O)nc2ccccc21` [Compound 114] were, in that order, more than 80% and more than 80%.
Turning to `Cc1cc2nc(CN3CCCC3c3ccccn3)n(Cc3ccc(Cl)cc3)c2cc1C` (centres unmarked) [Compound 51], the activity at 5 µM was less than 20% and the activity at 10 µM is less than 20%.
As for `Cc1cc2nc(CN3CCCC3)n(Cc3ccc(Cl)cc3)c2cc1C` [Compound 156], the activity at 5 µM was less than 80% and the activity at 10 µM is less than 55%.
Taken in the same sequence, the figures for `COc1ccc(Cn2c(C)nc3c(NS(=O)(=O)c4ccc(F)cc4)c(C)c(C)cc32)cc1` [Compound 107] were less than 80% and less than 55%.
For the compound `O=C(O)c1cccc(Cn2c(CN3CCCC3)nc3ccccc32)c1` [Compound 17], the activity at 5 µM was more than 80% and the activity at 10 µM was more than 80%.
In the case of `CC(C)(C)c1ccc(Cn2cnc3ccccc32)cc1` [Compound 141], the activity at 5 µM is less than 55% and the activity at 10 µM is less than 20%.
Taken in the same sequence, the figures for `O[C@H]1CCN(Cc2nc3ccccc3n2Cc2ccc(Cl)cc2)C1` [Compound 23] were more than 80% and more than 80%.
Taken in the same sequence, the figures for `CS(=O)(=O)c1ccc2c(c1)nc(C(F)(F)F)n2Cc1ccccc1` [Compound 150] were less than 80% and less than 55%.
As to `Cc1cccc(Cn2cnc3c(NS(=O)(=O)c4ccc(F)cc4)c(C)c(C)cc32)c1` [Compound 80], the activity at 5 µM was less than 55% and the activity at 10 µM is less than 80%.
Taken in the same sequence, the figures for `Cc1cc2nc([C@@H](C)C3CCC[C@H]3CO)n(Cc3ccc(Cl)cc3)c2cc1C` (some centres unmarked) [Compound 90] were less than 80% and less than 55%.
The like results for `Cc1cc2ncn(Cc3ccc(F)cc3)c2cc1C` [Compound 129] were, in that order, more than 80% and more than 80%.
For the compound `OCc1nc2ccccc2n1Cc1ccc(Br)cc1` [Compound 136], the activity at 10 µM is less than 55%.
As for `Clc1ccc(Cn2cnc3cccnc32)cc1` [Compound 85], the activity at 5 µM was more than 80% and the activity at 10 µM was less than 80%.
Taken in the same sequence, the figures for `Cc1cc2ncn(Cc3ccccc3)c2cc1C` [Compound 128] were less than 55% and less than 55%.
For the compound `c1ccc2c(c1)nc(CN1CCCC1)n2CC1CCCNC1` (centres unmarked) [Compound 39], the activity at 5 µM was less than 80% and the activity at 10 µM was less than 80%.
In the case of `COCC1CCCN1Cc1nc2c(C)c(C)ccc2n1Cc1ccc(Cl)cc1` (centres unmarked) [Compound 31], the activity at 5 µM was less than 80% and the activity at 10 µM was less than 55%.
For `COC(=O)c1ccc(Cn2cnc3ccncc32)cc1` [Compound 161], the activity at 5 µM is more than 80% and the activity at 10 µM was more than 80%.
As to `Clc1ccc(Cn2c(CN3CCCC3)nc3cc(Cl)c(Cl)cc32)cc1` [Compound 157], the activity at 5 µM is less than 80% and the activity at 10 µM was less than 55%.
The like results for `Cc1cc2ncn(Cc3ccc(Cl)cc3)c2cc1Cl` [Compound 65] were, in that order, less than 80% and less than 55%.
Taken in the same sequence, the figures for `N#Cc1ccc2c(ccn2Cc2ccc(Cl)cc2)n1` [Compound 104] were less than 55% and less than 55%.
The like results for `COC(=O)c1ccc(Cn2c(CN3CCCC3)nc3ccccc32)cc1` [Compound 14] were, in that order, less than 80% and less than 80%.
As to `Cc1cc2nc(CN3CCCC3C)n(Cc3ccc(Cl)cc3)c2cc1C` (centres unmarked) [Compound 49], the activity at 5 µM is less than 55% and the activity at 10 µM is less than 55%.
As to `COCC1CCCN1Cc1nc2ccccc2n1Cc1ccc(Cl)cc1` (centres unmarked) [Compound 10], the activity at 5 µM was less than 80% and the activity at 10 µM is less than 80%.
With `Cc1cc2nc(CN3CCC[C@H]3CO)n(Cc3ccc(Cl)cc3)c2cc1C` [Compound 47], the activity at 5 µM is less than 80% and the activity at 10 µM was less than 80%.
As for `Cc1cc2ncn(Cc3cc(Cl)cc4c3OCCO4)c2cc1C` [Compound 154], the activity at 5 µM is less than 80% and the activity at 10 µM is less than 55%.
Taken in the same sequence, the figures for `COc1cc2ncn(Cc3ccc(Cl)cc3)c2cc1OC` [Compound 57] were less than 80% and less than 55%.
As to `CCC(=O)NCc1nc2ccccc2[nH]1` [Compound 113], the activity at 5 µM was more than 80% and the activity at 10 µM is more than 80%.
Turning to `Clc1ccc(Cn2c(CN3CCOCC3)nc3ccccc32)cc1` [Compound 127], the activity at 5 µM is less than 55% and the activity at 10 µM is less than 55%.
As to `CCOC(=O)Cc1nc2cc(S(C)(=O)=O)ccc2n1Cc1ccccc1` [Compound 151], the activity at 5 µM is less than 80% and the activity at 10 µM is less than 55%.
The like results for `Brc1ccc(Cn2cnc3ccccc32)cc1` [Compound 134] were, in that order, less than 55% and less than 20%.
Taken in the same sequence, the figures for `Cc1cc2c(ncn2Cc2ccc(Cl)cc2)c(NC(=O)C(F)(F)F)c1C` [Compound 70] were more than 80% and more than 80%.
Consider `CS(=O)(=O)c1ccc2c(c1)nc(S)n2Cc1ccccc1` [Compound 152], for which the activity at 5 µM is less than 80% and the activity at 10 µM is less than 55%.
For the compound `N#Cc1cnc2ccn(Cc3ccc(Cl)cc3)c2c1` [Compound 105], the activity at 5 µM is more than 80% and the activity at 10 µM was more than 80%.
Take `Cc1ccc(Cn2c(C)nc3cc(C)c(C)cc32)cc1` [Compound 155]: the activity at 5 µM is less than 55% and the activity at 10 µM is less than 20%.
`Cc1c(Cl)cnc2c1ccn2Cc1ccc(Cl)cc1` [Compound 102]: the activity at 5 µM is less than 80% and the activity at 10 µM was less than 80%.
Take `Oc1ccc2c(c1)ncn2Cc1ccc(Cl)cc1` [Compound 60]: the activity at 5 µM is less than 20% and the activity at 10 µM is less than 20%.
Regarding `FC(F)(F)c1nc2ccccc2n1Cc1ccc(Cl)c(Cl)c1` [Compound 124], the activity at 5 µM is less than 55% and the activity at 10 µM is less than 55%.
With `CS(=O)(=O)N1CCCC(Cn2c(CN3CCCC3)nc3ccccc32)C1` (centres unmarked) [Compound 35], the activity at 5 µM was more than 80% and the activity at 10 µM was more than 80%.
Regarding `Cc1cc2nc(CN3CCCC3=O)n(Cc3ccc(Cl)cc3)c2cc1C` [Compound 63], the activity at 5 µM was less than 80% and the activity at 10 µM was more than 80%.
The like results for `O=C(O)c1ccc(Cn2c(CN3CCCC3)nc3ccccc32)cc1` [Compound 15] were, in that order, more than 80% and more than 80%.
Regarding `COCC1CCCN1Cc1nc2cc(C)ccc2n1Cc1ccc(Cl)cc1` (centres unmarked) [Compound 29], the activity at 5 µM was more than 80% and the activity at 10 µM was less than 55%.
Turning to `Cc1ccc2c(nc(CN3CCCC3=O)n2Cc2ccc(Cl)cc2)c1C` [Compound 33], the activity at 5 µM was more than 80% and the activity at 10 µM is more than 80%.
Take `Cc1cc2nc(CN3CCC[C@@H]3C)n(Cc3ccc(Cl)cc3)c2cc1C` [Compound 97]: the activity at 5 µM was less than 55% and the activity at 10 µM is less than 20%.
Taken in the same sequence, the figures for `c1cncc(Cn2c(CN3CCCC3)nc3ccccc32)c1` [Compound 21] were more than 80% and more than 80%.
Taken in the same sequence, the figures for `Cc1cc2c(nc(C)n2Cc2ccccc2)c(NS(C)(=O)=O)c1C` [Compound 76] were more than 80% and less than 80%.
Regarding `Clc1cccc(Cn2c(CN3CCCC3)nc3ccccc32)c1` [Compound 18], the activity at 5 µM is less than 80% and the activity at 10 µM is less than 80%.

These data come from patent publication US9101628B2, “Methods and composition of treating a flaviviridae family viral infection” (The Board of Trustees of the Leland Stanford Junior …, priority 2007, dated 2015).
